Measurements: patent US10308607B2, “Fucosidase inhibitors” (HORIZON ORPHAN LLC, priority 2015, dated 2019)

Key:
HepG2 cells [1] = test: Metabolic labeling with tagged-fucose, flow cytometry; type: cell-based, human; conditions: for Mean Green Fluorescence (GRN-HLog): HepG2, 24 hours compound then 48 hours fucose alkyne, Alexa Fluor 488 Azide; for Fold over vehicle: mean green fluorescence, HepG2
Experimental: Perturbations in glycoprotein metabolism were assayed by growing HepG2 cells without fucosidase inhibitors, or with compound II, III, or IV (see Example 2) for 24 hours, and then adding (3S,4R,5R,6S)-6-ethynyltetrahydro-2H-pyran-2,3,4,5-tetrayl tetra acetate, a per-acetylated analog of fucose containing an alkyne moiety in place of the 5′-methyl group (Click-iT™ Fucose Alkyne, Molecular Probes, Eugene, Oreg.) for an additional 48 hours. Cells were fixed, permeabilized, washed, and stained with Alexa Fluor 488 Azide to orthogonally label glycoproteins incorporating the fucose analog. Cells were then analyzed for fluorescence using a Guava 6HT-2L flow cytometer (ThermoFisher).

rhFUCA1 = rhFUCA1 (Homo sapiens (Human), UniProt P04066); test: In vitro fucosidase inhibition (4MU-FUC fluorescence); type: biochemical; conditions: 1 ng/mL rhFUCA1, 640 nM 4MU-FUC, pH 4.5, 37° C., 30 minutes
Experimental: Fucosidase inhibition was assessed by preparing a reaction mixture of 50 mM phosphate-citrate pH 4.5, 5 mM MgCl2, 640 nM 4-methylumbelliferyl-alpha-L-fucopyranoside (4MU-FUC), 1 ng/mL rhFUCA1 (R&D Systems), and compound II, III, or IV:
Reactions (100 μL) were incubated at 37° C. for 30 minutes and then quenched with the same volume of 600 mM citrate-carbonate buffer, pH 9. Fluorescence was measured by excitation at 360 nm and emission at 450 nm.

HepG2 cells [2] = test: Cytotoxicity in HepG2 cells (XTT assay); type: cell-based, human; conditions: HepG2, 24 or 48 hours, compared to compound II
Experimental: To assess the compounds' cytotoxicity in cells, HepG2 cells were seeded in triplicate in 96-well plates at 1.5e4 cells/well in Minimum Essential Media, 10% FBS and 2 mM L-glutamine. Plated cells were allowed to recover for 48 hours. Medium was then replaced with the same media containing dilutions of compound II or IV (see Example 2), incubated for 24 or 48 hours, and subjected to XTT assay to measure viability (ATCC).

fucosidase = conditions: Li et al. 2008; cited from earlier work

Sequence of rhFUCA1 (P04066 32-466): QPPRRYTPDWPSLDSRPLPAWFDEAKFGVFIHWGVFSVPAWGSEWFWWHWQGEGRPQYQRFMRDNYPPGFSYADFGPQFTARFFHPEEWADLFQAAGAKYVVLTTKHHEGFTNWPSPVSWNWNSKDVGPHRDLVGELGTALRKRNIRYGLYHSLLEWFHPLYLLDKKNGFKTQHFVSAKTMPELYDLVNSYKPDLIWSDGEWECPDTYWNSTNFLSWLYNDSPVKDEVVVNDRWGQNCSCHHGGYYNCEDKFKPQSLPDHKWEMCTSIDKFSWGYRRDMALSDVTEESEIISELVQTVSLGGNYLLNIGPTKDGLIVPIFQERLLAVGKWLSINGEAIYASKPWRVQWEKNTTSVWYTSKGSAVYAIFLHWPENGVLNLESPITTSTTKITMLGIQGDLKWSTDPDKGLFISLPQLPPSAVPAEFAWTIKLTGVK

| SMILES | Mean Green Fluorescence (GRN-HLog) (HepG2 cells [1]) | Fold over vehicle (HepG2 cells [1]) | IC50 (rhFUCA1) [nM] | cytotoxicity (XTT viability) (HepG2 cells [2]) | potency of fucosidase inhibition (fucosidase) |
| --- | --- | --- | --- | --- | --- |
| O=C(NC[C@@H]1N[C@@H](CF)[C@@H](O)[C@@H](O)[C@@H]1O)c1cccc2c1C(=O)c1ccccc1-2 [Compound III] | 1220 | 0.43 | 59 |  |  |
| C[C@@H]1N/C(=C\C(=O)Nc2cccc3c2C(=O)c2ccccc2-3)[C@@H](O)[C@H](O)[C@@H]1O [Compound IV] | 12900 | 4.56 | 1500 | reduced cytotoxicity at higher inhibitor concentrations compared to compound II |  |
| CCCCN1C[C@H](O)[C@@H](O)[C@H](O)[C@H](C(=O)O)C1 [Faz, (3R,4R,5S,6S)-1-butyl-4,5,6-trihydroxyazepane-3-carboxylic acid] |  |  |  |  | low nanomolar range |
